According to US10041085B2, “Plant type related protein, and coding gene and application thereof” (Cotton Research Institute, Chinese Academy of Agricultural …, priority 2013, dated 2018):

Columns and labels:
Assay type in all cases: in vivo, Gossypium hirsutum
mutant pagoda1 [1] = assay: Response of mutant pagoda1 to brassinosteroids (hypocotyledonary axis length); conditions: 500 nM in liquid medium, cotyledon stage to five leaf stage, vs 0.2% ethanol control, average of 20 plants
Procedure: (§1) The mutant pagoda1 and the cotton variety“CRI 24” were identified as below, respectively: • Test Group: cultivating cotton plants of the cotyledon stage in a liquid medium containing 500 nM brassinosteroids (Sigma) to the five leaf stage, to measure the length of its hypocotyledonary axis;
(§2) Control Group: the same as the Test Group, except that brassinosteroids was replaced with an equal volume of an aqueous solution of 0.2% ethanol.
(§3) The length measurements of hypocotyledonary axis of the processed plants from respective groups (an averaged measurement of 20 plants for each group) are shown in FIG. 2. […] For the cotton variety “CRI 24”, after the treatment with brassinosteroids, the hypocotyledonary axis was prolonged by only 16%.

mutant pagoda1 [2] = assay: Shaping of cotton by local application of brassinosteroids
Text: Since brassinosteroids cannot be delivered for a long distance in a plant, a local application thereof may promote the growth of the applied part, without an impact on the far part.

cotton variety "CRI 24" = assay: Response of cotton variety CRI 24 to brassinosteroids (hypocotyledonary axis length); conditions: 500 nM in liquid medium, cotyledon stage to five leaf stage, vs 0.2% ethanol control, average of 20 plants
Procedure: as §1, §2, §3

brassinosteroids
hypocotyledonary axis prolonged after treatment with brassinosteroids (mutant pagoda1 [1]): 270% | extension of the lateral branch after application to the lateral branch (mutant pagoda1 [2]; 500 nM applied to a lateral branch of a seedling of mutant pagoda1 (FIG. 4B)): significantly extended | growth of the top of the seedling after application to the top (mutant pagoda1 [2]; 500 nM applied to the top of a seedling of mutant pagoda1 (FIG. 4A)): significantly promoting the growth of the top of the seeding | hypocotyledonary axis prolonged after treatment with brassinosteroids (cotton variety "CRI 24"): 16%
